Source: article PMC12612047 (Nature Communications, 2025)

System: CLMB-FLAG S-acylation in HEK293 Flp-In TReX cells
Assay: Metabolic pulse-chase labeling assay of dynamic CLMB S-acylation
Assay type: cell-based
Details: 30-min chase

Structure (SMILES): CCCCCCCCCC[C@@H]1C(=O)O[C@H]1CCc1ccc(OC)c(OC)c1 [PalmB, palmostatin B]
- increase of palmitate incorporation into CLMB (17-ODYA to L-AHA ratio), PalmB vs DMSO: ~ 3 fold
